Data published in US6737383B1, “Herbicidal oxadiazolidines” (priority 1999, dated 2004).

Legend:
bedstraw = assay: Test B pre/postemergence bedstraw; type: in vivo, Galium aparine
How it was run: (§1)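 Test chemicals in a non-phytotoxic solvent mixture with surfactant were sprayed preemergence onto planted seeds and postemergence onto plants 2 to 18 cm tall (1- to 4-leaf stage). After twelve to sixteen days in a greenhouse, injury was visually rated against untreated controls from 0 (no effect) to 10 (complete control).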

blackgrass = assay: Test B pre/postemergence blackgrass; type: in vivo, Alopecurus myosuroides
How it was run: as §1

surinam grass = assay: Test B pre/postemergence surinam grass; type: in vivo, Brachiaria decumbens
How it was run: as §1

cocklebur = assay: Test B pre/postemergence cocklebur; type: in vivo, Xanthium strumarium
How it was run: as §1

corn = assay: Test B pre/postemergence corn; type: in vivo, Zea mays
How it was run: as §1

giant foxtail = assay: Test B pre/postemergence giant foxtail; type: in vivo, Setaria faberii
How it was run: as §1

morningglory = assay: Test B pre/postemergence morningglory; type: in vivo, Ipomoea hederacea
How it was run: as §1

pigweed = assay: Test B pre/postemergence pigweed; type: in vivo, Amaranthus retroflexus
How it was run: as §1

rape = assay: Test B pre/postemergence rape; type: in vivo, Brassica napus
How it was run: as §1

sugar beet = assay: Test B pre/postemergence sugar beet; type: in vivo, Beta vulgaris; conditions: for Plant response rating, Sugarbeets: Rate 250 g/ha
How it was run: as §1

velvetleaf = assay: Test B pre/postemergence velvetleaf; type: in vivo, Abutilon theophrasti; conditions: for Plant response rating, Velvetleaf: Rate 250 g/ha
How it was run: as §1

purple nutsedge = assay: Test B pre/postemergence purple nutsedge; type: in vivo, Cyperus rotundus
How it was run: as §1

rice = assay: Test B flood test rice; type: in vivo, Oryza sativa
How it was run: (§2)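 Each value is a visual injury score relative to controls, with 10 meaning complete control and 0 no effect. Evaluation took place twelve to sixteen days after the 2-leaf-stage plants were treated and kept in the greenhouse.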

duck salad = assay: Test B flood test duck salad; type: in vivo, Heteranthera limosa
How it was run: as §2

bamyardgrass = assay: Test B flood test barnyardgrass; type: in vivo, Echinochloa crus-galli
How it was run: as §2

[1] = Preemergence, Rate 62 g/ha, scale 0 to 10 (0 no effect, 10 complete control)
[2] = Preemergence, Rate 125 g/ha, scale 0 to 10 (0 no effect, 10 complete control)
[3] = Preemergence, Rate 250 g/ha, scale of 0 to 10 where 0 is no effect and 10 is complete control
[4] = Preemergence, Rate 500 g/ha, scale 0 to 10 (0 no effect, 10 complete control)
[5] = Rate 500 g/ha, Postemergence, scale 0 to 10, 0 no effect, 10 complete control
[6] = Postemergence, Rate 125 g/ha, scale of 0 to 10 where 0 is no effect and 10 is complete control
[7] = Postemergence, Rate 250 g/ha, scale 0 to 10, 0 no effect, 10 complete control
[8] = Rate 62 g/ha, Postemergence, scale of 0 to 10 where 0 is no effect and 10 is complete control
[9] = Postemergence, Rate 62 g/ha, scale 0 to 10, 0 is no effect, 10 is complete control
[10] = Preemergence, Rate 125 g/ha, 0 is no effect, 10 is complete control
[11] = Preemergence, scale of 0 to 10 where 0 is no effect and 10 is complete control
[12] = Postemergence, scale 0 to 10, 0 is no effect, 10 is complete control
[13] = Postemergence (flood test species), Rate 125 g/ha, scale of 0 to 10 where 0 is no effect and 10 is complete control
[14] = Rate 62 g/ha, Postemergence section, flood test species, scale of 0 to 10 where 0 is no effect and 10 is complete control
[15] = Rate 250 g/ha, headed Pre-emergence (flood test species), scale 0 to 10 (0 no effect, 10 complete control)
[16] = Rate 500 g/ha, headed Pre-emergence (flood test species), scale 0 to 10 (0 no effect, 10 complete control)
[17] = Rate 500 g/ha, listed under Postemergence (flood test species), scale 0 to 10, 0 no effect, 10 complete control
[18] = Rate 1000 g/ha, Pre-emergence (as headed), scale 0 to 10
[19] = Rate 2000 g/ha, Pre-emergence (as headed), scale 0 to 10
[20] = flood test, listed under Postemergence, Rate 250 g/ha, scale 0 to 10, 0 no effect, 10 complete control

## Cc1nn(C)c(Cl)c1-n1c(=O)on(C(=O)N(c2ccccc2)C(C)C)c1=O [Compound 121]
bedstraw; [1]
  Bedstraw plant response rating: 0
bedstraw; [2]
  Plant response rating, Bedstraw: 0
bedstraw; [3]
  Plant response rating, Bedstraw: 2
bedstraw; [4]
  Bedstraw plant response rating: 5
bedstraw; [5]
  Bedstraw plant response rating: 6
blackgrass; [6]
  Blackgrass plant response rating: 0
blackgrass; [7]
  Blackgrass plant response rating: 2
blackgrass; [1]
  Blackgrass plant response rating: 0
blackgrass; [2]
  Plant response rating, Blackgrass: 4
blackgrass; [3]
  Plant response rating, Blackgrass: 7
blackgrass; [4]
  Blackgrass plant response rating: 9
blackgrass; [8]
  Blackgrass plant response rating: 0
blackgrass; [5]
  Blackgrass plant response rating: 6
Surinam grass; [9]
  B. signalgrass plant response rating: 0
Surinam grass; [6]
  B. signalgrass plant response rating: 0
Surinam grass; [7]
  B. signalgrass plant response rating: 3
Surinam grass; [1]
  B. signalgrass plant response rating: 0
Surinam grass; [2]
  Plant response rating, B. signalgrass: 4
Surinam grass; [3]
  Plant response rating, B. signalgrass: 8
Surinam grass; [4]
  B. signalgrass plant response rating: 9
Surinam grass; Rate 500 g/ha, Postemergence, scale of 0 to 10 where 0 is no effect and 10 is complete control
  B. signalgrass plant response rating: 3
cocklebur; [6]
  Cocklebur plant response rating: 2
cocklebur; [7]
  Cocklebur plant response rating: 2
cocklebur; [1]
  Cocklebur plant response rating: 0
cocklebur; [2]
  Plant response rating, Cocklebur: 0
cocklebur; [4]
  Cocklebur plant response rating: 0
cocklebur; [8]
  Cocklebur plant response rating: 0
cocklebur; [5]
  Cocklebur plant response rating: 5
corn; [6]
  Corn plant response rating: 0
corn; [7]
  Corn plant response rating: 0
corn; [1]
  Corn plant response rating: 0
corn; [2]
  Plant response rating, Corn: 0
corn; [3]
  Plant response rating, Corn: 0
corn; [4]
  Corn plant response rating: 0
corn; [8]
  Corn plant response rating: 0
corn; [5]
  Corn plant response rating: 0
Giant foxtail; [6]
  Giant foxtail plant response rating: 1
Giant foxtail; [7]
  Giant foxtail plant response rating: 7
Giant foxtail; [1]
  Giant foxtail plant response rating: 8
Giant foxtail; [2]
  Plant response rating, Giant foxtail: 8
Giant foxtail; [3]
  Plant response rating, Giant foxtail: 8
Giant foxtail; [4]
  Giant foxtail plant response rating: 10
Giant foxtail; [8]
  Giant foxtail plant response rating: 1
Giant foxtail; [5]
  Giant foxtail plant response rating: 8
morningglory; [6]
  Morningglory plant response rating: 6
morningglory; [7]
  Morningglory plant response rating: 6
morningglory; [1]
  Morningglory plant response rating: 0
morningglory; [2]
  Plant response rating, Morningglory: 0
morningglory; [3]
  Plant response rating, Morningglory: 0
morningglory; [4]
  Morningglory plant response rating: 0
morningglory; [8]
  Morningglory plant response rating: 5
morningglory; [5]
  Morningglory plant response rating: 9
pigweed; [6]
  Redroot pigweed plant response rating: 2
pigweed; [1]
  Redroot pigweed plant response rating: 4
pigweed; [2]
  Plant response rating, Redroot pigweed: 7
pigweed; [3]
  Plant response rating, Redroot pigweed: 8
pigweed; [4]
  Redroot pigweed plant response rating: 8
pigweed; [8]
  Redroot pigweed plant response rating: 2
pigweed; Rate 250 g/ha, Postemergence, scale 0 to 10, 0 is no effect, 10 is complete control
  Plant response rating, Redroot pigweed: 3
pigweed; [5]
  Redroot pigweed plant response rating: 5
rape; [6]
  Rape plant response rating: 0
rape; [7]
  Rape plant response rating: 2
rape; [1]
  Rape plant response rating: 0
rape; [2]
  Plant response rating, Rape: 0
rape; [3]
  Plant response rating, Rape: 0
rape; [4]
  Rape plant response rating: 0
rape; [8]
  Rape plant response rating: 0
rape; [5]
  Rape plant response rating: 3
Sugar beet; [6]
  Sugarbeets plant response rating: 0
Sugar beet; [1]
  Sugarbeets plant response rating: 0
Sugar beet; [10]
  Sugarbeets plant response rating (0 to 10 scale): 3
Sugar beet; [11]
  Plant response rating, Sugarbeets: 7
Sugar beet; [4]
  Sugarbeets plant response rating: 7
Sugar beet; [8]
  Sugarbeets plant response rating: 0
Sugar beet; [12]
  Plant response rating, Sugarbeets: 4
Sugar beet; [5]
  Sugarbeets plant response rating: 4
velvetleaf; [6]
  Velvetleaf plant response rating: 0
velvetleaf; [1]
  Velvetleaf plant response rating: 0
velvetleaf; [10]
  Velvetleaf plant response rating (0 to 10 scale): 0
velvetleaf; [11]
  Plant response rating, Velvetleaf: 0
velvetleaf; [4]
  Velvetleaf plant response rating: 0
velvetleaf; [8]
  Velvetleaf plant response rating: 0
velvetleaf; [12]
  Plant response rating, Velvetleaf: 4
velvetleaf; [5]
  Velvetleaf plant response rating: 4
Purple nutsedge; [6]
  Nutsedge plant response rating: 0
Purple nutsedge; [7]
  Nutsedge plant response rating: 0
Purple nutsedge; [1]
  Nutsedge plant response rating: 0
Purple nutsedge; [2]
  Plant response rating, Nutsedge: 0
Purple nutsedge; [3]
  Plant response rating, Nutsedge: 0
Purple nutsedge; [4]
  Nutsedge plant response rating: 0
Purple nutsedge; [8]
  Nutsedge plant response rating: 0
Purple nutsedge; [5]
  Nutsedge plant response rating: 0
rice; [13]
  Rice plant response rating: 0
rice; [14]
  Rice plant response rating: 0
rice; Rate 250 g/ha, Postemergence (flood test), scale 0 to 10, 0 is no effect, 10 is complete control
  Plant response rating, Rice: 0
rice; [15]
  Rice plant response rating: 0
rice; [16]
  Plant response rating, Rice: 0
rice; [17]
  Rice plant response rating: 0
rice; [18]
  Rice plant response rating: 3
rice; [19]
  Rice plant response rating: 5
Duck salad; [13]
  Ducksalad plant response rating: 0
Duck salad; [14]
  Ducksalad plant response rating: 0
Duck salad; [15]
  Ducksalad plant response rating: 0
Duck salad; [16]
  Plant response rating, Ducksalad: 0
Duck salad; [17]
  Ducksalad plant response rating: 0
Duck salad; [18]
  Ducksalad plant response rating: 0
Duck salad; [19]
  Ducksalad plant response rating: 0
Duck salad; [20]
  Ducksalad plant response rating: 0
bamyardgrass; [13]
  Barnyardgrass plant response rating: 0
bamyardgrass; [9]
  Barnyardgrass plant response rating: 0
bamyardgrass; [15]
  Barnyardgrass plant response rating: 0
bamyardgrass; [16]
  Plant response rating, Barnyardgrass: 8
bamyardgrass; [17]
  Barnyardgrass plant response rating: 6
bamyardgrass; [18]
  Barnyardgrass plant response rating: 9
bamyardgrass; Rate 2000 g/ha, Pre-emergence (as headed), scale 0 to 10, 0 no effect, 10 complete control
  Barnyardgrass plant response rating: 9
bamyardgrass; [20]
  Barnyardgrass plant response rating: 0
